Zone of inhibition data for 10 molecules are collected here from ChEMBL document CHEMBL2406921, “Regioselective synthesis, characterization and antimicrobial evaluation of S-glycosides and S,N-diglycosides of 1,2-Dihydro-5-(1H-indol-2-yl)-1,2,4-triazole-3-thione” (2013).

Holding throughout (format): functional
Holding throughout (settings): read-out: DIZ

Assay [1] has as its system Fusarium oxysporum. As to the kind of experiment: Antifungal activity against Fusarium oxysporum at 5 mg/ml by paper disc diffusion method. A general note: A growth-free zone around the sample is the usual read-out of agar diffusion tests.
In assay [2] the test system is Pseudomonas aeruginosa. As to the kind of experiment: Antibacterial activity against Pseudomonas aeruginosa at 5 mg/ml after 24 hrs by agar-diffusion technique.
The subject of assay [3] is Bacillus subtilis. As to the kind of experiment: Antibacterial activity against Bacillus subtilis at 5 mg/ml after 24 hrs by agar-diffusion technique.
Assay [4] has as its system Rhizoctonia solani. As to the kind of experiment: Antifungal activity against Rhizoctonia solani at 5 mg/ml by paper disc diffusion method.
For assay [5], the system named is Aspergillus niger. As to the kind of experiment: Antifungal activity against Aspergillus niger at 5 mg/ml by paper disc diffusion method.

For `NNC(=O)c1cc2ccccc2[nH]1`, the zone of inhibition at 5000 µg/mL in assay [1] worked out at 1.3 mm; in assay [2] it was 3 mm; in assay [3], 12 mm; in assay [4], 0.85 mm; in assay [5] it was 0 mm.
With `CC(=O)N[C@@H]1[C@@H](OC(C)=O)[C@H](OC(C)=O)[C@@H](COC(C)=O)O[C@H]1Sc1n[nH]c(-c2cc3ccccc3[nH]2)n1`, the zone of inhibition at 5000 µg/mL in assay [1] is 0 mm; in assay [2], 3.9 mm; in assay [3] it was 5.1 mm; in assay [4] it was 1.75 mm; in assay [5] it was 0 mm.
For the molecule `CC(=O)OC[C@H]1O[C@@H](n2nc(-c3cc4ccccc4[nH]3)nc2S[C@@H]2O[C@H](COC(C)=O)[C@@H](OC(C)=O)[C@H](OC(C)=O)[C@H]2OC(C)=O)[C@H](OC(C)=O)[C@@H](OC(C)=O)[C@@H]1OC(C)=O`, the zone of inhibition at 5000 µg/mL in assay [1] amounted to 1.95 mm; in assay [2] it was 2.5 mm; in assay [3], 6.5 mm; in assay [4], 1.15 mm; in assay [5], 0 mm.
The matching figures for `CCOC(=O)/C(C)=N/Nc1ccccc1`: 2.3 mm, 2.65 mm, 12 mm, 1.95 mm and 1.85 mm.
Turning to `NC(=S)NNC(=O)c1cc2ccccc2[nH]1`, the zone of inhibition at 5000 µg/mL in assay [1] came out at 1 mm; in assay [2], 2.5 mm; in assay [3], 12 mm; in assay [4], 1.05 mm; in assay [5] it was 0 mm.
The matching figures for `S=c1nc(-c2cc3ccccc3[nH]2)[nH][nH]1`: 1.7 mm, 3.5 mm, 12 mm, 0.8 mm and 0 mm.
Regarding `CC(=O)OC[C@H]1O[C@@H](Sc2n[nH]c(-c3cc4ccccc4[nH]3)n2)[C@H](OC(C)=O)[C@@H](OC(C)=O)[C@@H]1OC(C)=O`, the zone of inhibition at 5000 µg/mL was found to be 0 mm in assay [1]; 3.25 mm in assay [2]; 12 mm in assay [3]; 0.6 mm in assay [4]; 0 mm in assay [5].
`CC(=O)OC[C@H]1O[C@@H](Sc2n[nH]c(-c3cc4ccccc4[nH]3)n2)[C@H](OC(C)=O)[C@@H](OC(C)=O)[C@H]1OC(C)=O`: the zone of inhibition at 5000 µg/mL in assay [1] was 2.1 mm; in assay [2], 0.5 mm; in assay [3], 12 mm; in assay [4], 0.75 mm; in assay [5], 0 mm.
For `CCOC(=O)c1cc2ccccc2[nH]1` the same measures were 1.9 mm, 4.85 mm, 5.6 mm, 2.7 mm and 1.3 mm.
With `O=C(N[C@H](CO)[C@H](O)c1ccc([N+](=O)[O-])cc1)C(Cl)Cl` [CHLORAMPHENICOL], the zone of inhibition at 5000 µg/mL is 7.9 mm in assay [2] and 12 mm in assay [3].
